Read-outs that look alike come from different tables or passages of the source.
Target: T1, human CA-II (Homo sapiens, UniProt P00918)
T1 construct: purchased Sigma-Aldrich C6165
Test: Carbonic Anhydrase-II (CA-II) Fluorimetric Assay-IC50 Determination
Assay type: biochemical
Conditions: for inhibition at 0.1 µM: at 100 nM (c7); for inhibition at 0.1 µM / inhibition at 0.01 µM: read-out: CA-II % inhibition at concentration of column 7; for inhibition at 0.01 µM: at 10 nM (c7)
Experimental: Carbonic Anhydrase-II (CA-II) Fluorimetric Assay-IC50 Determination
Compounds were diluted in DMSO at the concentration of 1 mM, then 50 μM and transferred to a 96-well plate for further dilutions (1:3 dilution, 11 points) in duplicate. Highest final concentration of compound in this CA-II Fluorimetric assay is 1 μM. Assays were conducted in a final volume of 100 μL in 50 mM Tris/HCl (pH 7.6), 100 mM Na2SO4 and 0.005% Tween-20 in a 96-well black assay plate. Fluorescein diacetate was used as the substrate. Enzyme inhibition was determined by pipetting 8 μL of human CA-II (5 nM, from Sigma-Aldrich, product #: C6165) into assay plate contained 2 μL of compound and 2 μL of substrate (10 μM) in 88 μL of assay buffer. The rate of the hydrolysis of fluorescein diacetate were measured spectrophometrically at 488 nm (excitation), 538 nm (emission) and 530 nm (cutoff) using a Molecular Devices SpectraMax M2 fluorescence reader at 25° C.

[1] = given instead of Kd (ND), read-out: CA-II IC50
[2] = Kd ND, IC50 given instead, read-out: CA-II IC50 (where Kd is ND)

CN(C(=O)c1nc(Cc2ccccc2)n(-c2ccc(S(N)(=O)=O)cc2)n1)C(C1CC1)C1CC1 [Example R-28, 1-[4-(aminosulfonyl)phenyl)-5-benzyl-N-(dicyclopropylmethyl)-N-methyl-1H-124-triazole-3-carboxamide]
inhibition at 0.1 µM: 99%

CCc1ccc(CN(C)C(=O)c2nc(Cc3ccccc3)n(-c3ccc(S(N)(=O)=O)cc3)n2)cc1 [Example R-37, 1-[4-(aminosulfonyl)phenyl]-5-benzyl-N-(4-ethylbenzyl)-N-methyl-1H-124-triazole-3-carboxamide]
inhibition at 0.1 µM: 99%
IC50 [1]: 2.89 nM

NS(=O)(=O)c1ccc(-n2nc(C(=O)N3CCCC3Cc3cccnc3)nc2Cc2ccccc2)cc1 (centres unmarked) [Example R-68, 4-(5-benzyl-3-{[2-(pyridin-3-ylmethyl)pyrrolidin-1-yl]carbonyl}-1H-124-triazol-1-yl)benzenesulfonamide]
inhibition at 0.01 µM: 92%
IC50 [1]: 3.75 nM

CN(Cc1nc2ccc(F)cc2[nH]1)C(=O)c1nc(Cc2ccccc2)n(-c2ccc(S(N)(=O)=O)cc2)n1 [Example R-49, 1-[4-(aminosulfonyl)phenyl]-5-benzyl-N-[(6-fluoro-1H-benzimidazol-2-yl)methyl]-N-methyl-1H-124-triazole-3-carboxamide]
inhibition at 0.01 µM: 96%

CN(CCc1ccccc1)C(=O)c1nc(Cc2ccccc2)n(-c2ccc(S(N)(=O)=O)cc2)n1 [Example R-48, 1-[4-(aminosulfonyl)phenyl]-5-benzyl-N-methyl-N-(2-phenylethyl)-1H-124-triazole-3-carboxamide]
inhibition at 0.01 µM: 97%

CCN(CCN(C)C)C(=O)c1nc(Cc2ccccc2)n(-c2ccc(S(N)(=O)=O)cc2)n1 [Example R-43, 1-[4-(aminosulfonyl)phenyl]-5-benzyl-N-[2-(dimethylamino)ethyl]-N-ethyl-1H-124-triazole-3-carboxamide]
inhibition at 0.1 µM: 100%

CC(C)C1CCCCN1C(=O)c1nc(Cc2ccccc2)n(-c2ccc(S(N)(=O)=O)cc2)n1 (centres unmarked) [Example R-104]
IC50 [2]: 3.51 nM

NS(=O)(=O)c1ccc(-n2nc(C(=O)N3CCCC(c4cc[nH]n4)C3)nc2Cc2ccccc2)cc1 (centres unmarked) [Example R-67, 4-(5-benzyl-3-{[3-(1H-pyrazol-3-yl)piperidin-1-yl]carbonyl}-1H-124-triazol-1-yl)benzenesulfonamide]
inhibition at 0.01 µM: 97%
IC50 [1]: 3.72 nM

NS(=O)(=O)c1ccc(-n2nc(C(=O)N3CCc4ccccc4C3)nc2Cc2ccccc2)cc1 [Example R-52, 4-[5-benzyl-3-(34-dihydroisoqionolin-2(1H)-ylcarbonyl)-1H-124-triazol-1-yl]benzenesulfonamide]
inhibition at 0.01 µM: 96%
IC50 [1]: 2.83 nM

Cc1noc(C2CCN(C(=O)c3nc(Cc4ccccc4)n(-c4ccc(S(N)(=O)=O)cc4)n3)C2)n1 (centres unmarked) [Example R-63, 4-(5-benzyl-3-{[3-(3-methyl-124-oxadiazol-5-yl)pyrrolidin-1-yl]carbonyl}-1H-124-triazol-1-yl)benzenesulfonamide]
inhibition at 0.01 µM: 95%

NS(=O)(=O)c1ccc(-n2nc(C(=O)N3CCc4conc4CC3)nc2Cc2ccccc2)cc1 [Example R-61, 4-[5-benzyl-3-(4578-tetrahydro-6H-isoxazolo[34-d]azepin-6-ylcarbonyl)-1H-124-triazol-1-yl]benzenesulfonamide]
inhibition at 0.01 µM: 94%

CCN(CCOC)C(=O)c1nc(Cc2ccccc2)n(-c2ccc(S(N)(=O)=O)cc2)n1 [Example R-34, 1-[4-(aminosulfonyl)phenyl]-5-benzyl-N-ethyl-N-(2-methoxyethyl)-1H-124-triazole-3-carboxamide]
inhibition at 0.1 µM: 99%
IC50 [1]: 2.99 nM

CC(C)CCN(C)C(=O)c1nc(Cc2ccccc2)n(-c2ccc(S(N)(=O)=O)cc2)n1 [Example R-31, 1-[4-(aminosulfonyl)phenyl]-5-benzyl-N-methyl-N-(3-methylbutyl)-1H-124-triazole-3-carboxamide]
inhibition at 0.1 µM: 100%
IC50 [1]: 3.03 nM

Cc1cc(CN(C)C(=O)c2nc(Cc3ccccc3)n(-c3ccc(S(N)(=O)=O)cc3)n2)n[nH]1 [Example R-50, 1-[4-(aminosulfonyl)phenyl]-5-benzyl-N-methyl-N-[(5-methyl-1H-pyrazol-3-yl)methyl]-1H-124-triazole-3-carboxamide]
inhibition at 0.01 µM: 95%

CCN(CCC#N)C(=O)c1nc(Cc2ccccc2)n(-c2ccc(S(N)(=O)=O)cc2)n1 [Example R-41, 1[4-(aminosulfonyl)phenyl]-5-benzyl-N-(2-cyanoethyl)-N-ethyl-1H-124-triazole-3-carboxamide]
inhibition at 0.1 µM: 99%

NS(=O)(=O)c1ccc(-n2nc(C(=O)N3CCCN(C=O)CC3)nc2Cc2ccccc2)cc1 [Example R-27, 4-(5-benzyl-3-[(4-formyl-14-diazepan-1-yl)carbonyl]-1H-124-triazol-1-yl)benzenesulfonamide]
inhibition at 0.1 µM: 99%

CCCN(C(=O)c1nc(Cc2ccccc2)n(-c2ccc(S(N)(=O)=O)cc2)n1)[C@@H](C)CO [Example R-29, 1-[4-(aminosulfonyl)phenyl]-5-benzyl-N-[(1S)-2-hydroxy-1-methylethyl]-N-propyl-1H-124-triazole-3-carboxamide]
inhibition at 0.1 µM: 98%

CC(C)C1(CO)CCN(C(=O)c2nc(Cc3ccccc3)n(-c3ccc(S(N)(=O)=O)cc3)n2)CC1 [Example R-73, 4-(5-benzyl-3-{[4-(hydroxymethyl)-4-isopropylpiperidin-1-yl]carbonyl}-1H-124-triazol-1-yl)benzenesulfonamide]
IC50 [2]: 3.5 nM

CC(C)N(CC(O)c1ccccc1)C(=O)c1nc(Cc2ccccc2)n(-c2ccc(S(N)(=O)=O)cc2)n1 (centres unmarked) [Example R-45, 1-[4-(aminosulfonyl)phenyl]-5-benzyl-N-(2-hydroxy-2-phenylethyl)-N-isopropyl-1H-124-triazole-3-carboxamide]
inhibition at 0.01 µM: 95%

CN(CC(C)(O)c1ccccc1)C(=O)c1nc(Cc2ccccc2)n(-c2ccc(S(N)(=O)=O)cc2)n1 (centres unmarked) [Example R-54, 1-[4-(aminosulfonyl)phenyl]-5-benzyl-N-(2-hydroxy-2-phenylpropyl)-N-methyl-1H-124-triazole-3-carboxamide]
inhibition at 0.01 µM: 97%

NS(=O)(=O)c1ccc(-n2nc(C(=O)N3CCCCC3Cc3ccccc3)nc2Cc2ccccc2)cc1 (centres unmarked) [Example R-53, 4-(5-benzyl-3-[(2-benzylpiperidin-1-yl)carbonyl]-1H-124-triazol-1-yl)benzenesulfonamide]
inhibition at 0.01 µM: 92%
IC50 [1]: 3.36 nM

COc1cccc(CN(C)C(=O)c2nc(Cc3ccccc3)n(-c3ccc(S(N)(=O)=O)cc3)n2)c1 [Example R-103, 1-[4-(aminosulfonyl)phenyl]-5-benzyl-N-(3-methoxybenzyl)-N-methyl-1H-124-triazole-3-carboxamide]
IC50 [2]: 3.12 nM

CCCN(CCc1ccccn1)C(=O)c1nc(Cc2ccccc2)n(-c2ccc(S(N)(=O)=O)cc2)n1 [Example R-58, 1-[4-(aminosulfonyl)phenyl]-5-benzyl-N-propyl-N-(2-pyridin-2-ylethyl)-1H-124-triazole-3-carboxamide]
inhibition at 0.01 µM: 98%

Cc1cc(CN(C)C(=O)c2nc(Cc3ccccc3)n(-c3ccc(S(N)(=O)=O)cc3)n2)on1 [Example R-64, 1-[4-(aminosulfonyl)phenyl]-5-benzyl-N-methyl-N-[(3-methylisoxazol-5-yl)methyl]-1H-124-triazole-3-carboxamide]
inhibition at 0.01 µM: 94%
IC50 [1]: 2.95 nM

CN(CC(F)(F)F)C(=O)c1nc(Cc2ccccc2)n(-c2ccc(S(N)(=O)=O)cc2)n1 [Example R-101, 1-[4-(aminosulfonyl)phenyl]-5-benzyl-N-methyl-N-(222-trifluoroethyl)-1H-124-triazole-3-carboxamide]
IC50 [2]: 3.48 nM

N#CCCN(C(=O)c1nc(Cc2ccccc2)n(-c2ccc(S(N)(=O)=O)cc2)n1)C1CCCC1 [Example R-74, 1-[4-(aminosulfonyl)phenyl]-5-benzyl-N-(2-cyanoethyl)-N-cyclopentyl-1H-124-triazole-3-carboxamide]
IC50 [2]: 3.43 nM

NS(=O)(=O)c1ccc(-n2nc(C(=O)N3CC(Cc4ccccc4)C3)nc2Cc2ccccc2)cc1 [Example R-91, 4-{5-benzyl-3-[(3-benzylazetidin-1-yl)carbonyl]-1H-124-triazol-1-yl}benzenesulfonamide]
IC50 [2]: 3.19 nM

Reference: patent US20100256357A1, “HETEROCYCLES USEFUL AS INHIBITORS OF CARBONIC ANHYDRASE” (Agouron Pharmaceuticals, Inc., priority 2006, published 2010)
